Data set [1] relates to human uterine smooth muscle cells. Nature of the data set: collagen gel contraction assay with human uterine smooth muscle cells. In kind it is cell-based. The following applies: compound at 10 μM; oxytocin 100 nM, 18 hours. The procedure:
The abilities of various hormonal steroids to inhibit human uterine smooth muscle cell contraction were assessed utilizing a collagen gel contraction assay. Collagen (150 μl) was aliquoted per well of a 48-well plate. After 1 hour of polymerization, 80,000 human uterine smooth muscle cells (SMCs), were added to each well in 300 μl of SmBM smooth muscle basic medium (Lonza) with vehicle (DMSO) or compounds (2.5 µM of DHEA-S, 10 µM of THDOC, 10 µM of estriol-16-glucuronide, 10 µM of androstane-3,17-diol, or 2 mM of progesterone). Collagen gels were exposed to oxytocin (100 nM) to stimulate uterine SMC contraction or PBS as control. After incubating for 1 hour at 37° C. and 5% CO2, the sides of the collagen gels were detached from the wells with sterile 200-μl pipette tips. After 18 hours, cells in collagen-coated wells were fixed with 4% paraformaldehyde solution for 30 min, then rinsed, and stored in PBS. Experiments were done multiple times (n=7), with duplicates for each condition. Surface area of each gel circle was measured using ImageJ. The areas were then expressed as a percentage relative to the area of no cell (collagen alone) control (set at 100%).
Each of the compounds assessed provided some ability to mitigate collagen retraction. […]

In data set [2] the test system is uterine muscle strips from pregnant WT mice. Nature of the data set: myography of mouse uterine muscle strips, spontaneous contraction. The protocol: (§1) Uterine muscle strips were extracted from pregnant mice and were assessed for contractibility via myography. Timed-pregnant wild-type C57/B6 mice were euthanized before making a vertical midline abdominal incision and removing each of the two uterine horns. Uterine horns were subsequently cut into 3-mm×7-mm segments and placed in a modified Krebs buffer (118 mM NaCl, […], 1.2 mM MgSO4, 1.2 mM KH2PO4, 2.5 mM CaCl2), 25 mM NaHCO3, and 11 mM glucose, pH 7.4). Muscle segments were vertically suspended on custom-made stainless steel hooks inside an organ bath filled with modified Krebs buffer, maintained at 37° C., and aerated with gas containing 95% O2 and 5% CO2. The strips were allowed to equilibrate at 1.5 g of tension for 45 min.
Provided in FIG. 5A are results of a myography experiment measuring spontaneous contraction. Myography of uterine muscle strips from pregnant WT mice at D18 was performed while incubating the strips with oxytocin (OXY), Vehicle, 0.25 μM μM of DHEA-S, 1 μM of THDOC, 1 μM of estriol-16-glucuronide, or 1 μM of androstane-3,17-diol. The area under the curve was calculated for the final 180 s of each 9-min contraction tracing using GraphPad Prism (GraphPad Prism for Macintosh version 5.0; GraphPad Software). The area under the curve for each response was then normalized to the area under the curve of the baseline.
Provided in FIG. 5E are myography tracings recorded with various compound applications: 10 μM progesterone, 1 μM Androstane-3,17-diol, 0.5 μM Androstane-3,17-diol+5 μM progesterone, and 0.33 μM Androstane-3,17-diol+0.33 μM THDOC+3.3 μM progesterone. Left of the arrow is baseline contraction and to the right of the arrow indicates when the compounds were applied. […] Note that there was no obvious effect when treating the muscle with 1 μM progesterone (data not shown).

In data set [3] the test system is uterine muscle strips from pregnant WT mice stimulated with oxytocin. Nature of the data set: myography of mouse uterine muscle strips, oxytocin dose response. The following applies: D18 strips. The protocol: as §1
For the oxytocin dose-response experiments, the strips were then stimulated with oxytocin at concentrations ranging from 1 to 1000 nM, and the pattern of contraction in response to each dose was recorded for 9 min. The muscle strips were washed with Krebs solution twice and allowed to equilibrate for 3 min before the next stimulation. In separate experiments, strips were treated with the compounds before assessing the dose response to oxytocin. Contraction tracings were recorded using PowerLab and LabChart (ADInstruments).
Provided in FIGS. 5B and 5C are results of a myography experiment measuring spontaneous contractions induced by oxytocin. […]

For data set [4], the system named is pregnant C57BL/6 mice. Put plainly: mouse model of moderate preterm birth (LPS 2 mg/kg). In kind it is in vivo. The following applies: LPS 2 mg/kg D15; for gestation after LPS: intraperitoneal every 8 hours, DHEA-S, THDOC 0.8 then 0.4 mg/mouse, androstane-3,17-diol 1.5 mg/mouse, combinations 0.75 mg/mouse each. The protocol:
Provided in FIGS. 6A and 6B are an experimental schematic and results of compound treatment in mouse models of moderate preterm birth. Pregnant C57BL/6 mice were intraperitoneally administered 2 mg/kg LPS (Escherichia coli 0127:B8, chromatographically pure, Sigma-Aldrich) or PBS (as control) on D15. Mice were then treated with either intraperitoneal injections of vehicle (100 μl, 30% DMSO in pharmaceutical sesame oil), DHEA-S (first two doses at 0.8 mg/mouse, later doses at 0.4 mg/mouse, 100 μl), THDOC (first two doses at 0.8 mg/mouse, later doses at 0.4 mg/mouse, 100 μl), estriol-16-glucuronide (first two doses at 0.8 mg/mouse, later doses at 0.4 mg/mouse, 100 μl), androstane-3,17-diol (1.5 mg/mouse, 100 μl), Androstane-3,17-diol+progesterone (each at 0.75 mg/mouse, 100 μl), or DHEA-S+androstane-3,17-diol+progesterone (androstane-3,17-diol and progesterone each at 0.75 mg/mouse, DHEA-S at 0.27 mg/mouse for the first two doses and then 0.13 mg/mouse for the later does, 100 μl). Compound groups received the compounds via intraperitoneal injections every 8 hours, beginning 8 hours after LPS administration, up to 4 doses, and then after 12 hours before delivery.

Data set [5] relates to pregnant C57BL/6 mice. Put plainly: mouse model of severe preterm birth (LPS 3 mg/kg). The class given is in vivo. The procedure: Provided in FIG. 7 is an experimental schematic of compound treatment in mouse models of severe preterm birth. In separate experiments, pregnant C57BL/6 mice were intraperitoneally administered 3 mg/kg LPS (Escherichia coli 0127: B8, chromatographically pure, Sigma-Aldrich) or PBS (as control) on D15. Treated mice were then treated with either intraperitoneal injections of vehicle (200 μl) or androstane-3,17-diol (1.5 mg/mouse, 200 μl) every 12 hours, up to 5 doses before delivery.
(§2) Provided in FIGS. 8A and 8B are an experimental schematic and results of tocolytic compound treatment in mouse models of severe preterm birth. In separate experiments, pregnant C57BL/6 mice were intraperitoneally administered 3 mg/kg LPS (Escherichia coli 0127: B8, chromatographically pure, Sigma-Aldrich) or PBS (as control) on D15. Treated mice were then treated with either intraperitoneal injections of vehicle or androstane-3,17-diol (1.5 mg/mouse). The androstane-3,17-diol group received androstane-3,17-diol via intraperitoneal injections every 24 hours, up to 3 days before delivery. One-third (33%) of LPS-induced preterm mice treated with androstane-3,17-diol reached full term.

In data set [6] the test system is pregnant C57BL/6 mice. Put plainly: gestation period in healthy control mice (no LPS). In kind it is in vivo. The settings on record: 1.5 mg/mouse intraperitoneal every 24 hours. The procedure:
as §2

For data set [7], the system named is pregnant CD1 mice. Nature of the data set: mouse model of preterm birth (CD1, LPS 1 mg/kg). The class given is in vivo. The following applies: LPS 1 mg/kg D15, subcutaneous; for pups birthed from treated preterm model females: 4 doses; for gestation after LPS: 4 doses at 30 mg/kg (5α-DHT 3 mg/kg). The protocol: Provided in FIGS. 9 and 9B are an experimental schematic and results of compound treatment in mouse models of preterm birth. Pregnant CD1 mice were intraperitoneally administered 1 mg/kg LPS (Escherichia coli 0127: B8, chromatographically pure, Sigma-Aldrich) or PBS (as control) on D15. Mice were then treated with either subcutaneous injections of vehicle (DMSO in pharmaceutical sesame oil), pregnenolone (Preg) (4 doses at 30 mg/kg), pregnenolone sulfate (PregS) (4 doses at 30 mg/kg), 7-methylguanine (4 doses at 30 mg/kg), or 5α-dihydrotestosterone (5α-DHT) (4 doses at 3 mg/kg). Compound groups received the compounds beginning 6 hours after LPS administration, then 6, 12, and 12 hours apart.

The values below come from US20240358719A1, “Formulations for Prolonging Gestation and for Complications of Menstruation or Gestation” (The Board of Trustees of the Leland Stanford Junior …, priority 2021, published 2024).

“Also recorded” adds a separate entry of the source. Counter-ions that a name gives are not always drawn.

With `C[C@]12CC[C@@H](O)C[C@@H]1CC[C@@H]1[C@@H]2CC[C@]2(C)[C@@H](O)CC[C@@H]12` (stereo in doubt) [androstane-3,17-diol], the “ability to mitigate collagen retraction” value in data set [1] is listed as “best results”. For the same molecule, the “muscle contractility, myography tracing” value in data set [2] (1 μM) is given as “rapid inhibition of the muscle contraction”. For the same molecule, the “suppression of uterine contractility (area under the curve normalized to baseline)” value in data set [2] (D18 strips, 0.25 μM DHEA-S, 1 μM THDOC, estriol-16-glucuronide or androstane-3,17-diol) was “most significant inhibition effect”. In addition, the “uterine contractility with oxytocin stimulation (AUC, amplitude)” value in data set [3] (1 μM compound, increasing doses of oxytocin) is given as “reduced; also recorded: inhibits uterine muscle contraction”. Also, in data set [4] (intraperitoneal), the “pups birthed from treated preterm model females” value (shortened to “pups birthed”) is “Full-term live pups” and the “rank of gestation result among treatments” value was “most significant results”. Further, the “gestation after LPS” value in data set [4] is listed as “prolonged gestation in vivo”. The “condition of mom and pups at full-term” value in data set [5] (1.5 mg/mouse intraperitoneal every 12 hours) is “looked healthy”. In data set [5] (1.5 mg/mouse intraperitoneal every 12 hours, up to 5 doses), the “fraction of mice that reached full-term” value was “⅓”. Further, in data set [5] (1.5 mg/mouse intraperitoneal every 24 hours, up to 3 days), the “LPS-induced preterm mice that reached full term” value is 33%. Moreover, the “gestation period of healthy control mice” value in data set [6] was “increased gestation period beyond the typical date of delivery”.
In the case of `C[C@]12CCC(=O)C[C@@H]1CC[C@@H]1[C@@H]2CC[C@]2(C)[C@@H](O)CC[C@@H]12` [5α-DHT, 5α-dihydrotestosterone], in data set [7], the “pups birthed” value is reported as “Full-term live pups” and the “gestation after LPS” value is reported as “prolonged gestation in vivo”.
Consider `Cn1cnc2nc(N)[nH]c(=O)c21` [7-methylguanine], for which, in data set [7], the “pups birthed” value was “Full-term live pups” and the “gestation after LPS” value is recorded as “prolonged gestation in vivo”.
As to `C[C@]12CC[C@H](OS(=O)(=O)O)CC1=CC[C@@H]1[C@@H]2CC[C@]2(C)C(=O)CC[C@@H]12` [DHEA-S, dehydroisoandrosterone sulfate], the “pups birthed” value in data set [4] (intraperitoneal) is listed as “Full-term live pups”. Further, the “gestation after LPS” value in data set [4] is on record as “prolonged gestation in vivo”.
With `CC[C@H](C)[C@@H]1NC(=O)[C@H](Cc2ccc(O)cc2)NC(=O)[C@@H](N)CSSC[C@@H](C(=O)N2CCC[C@H]2C(=O)N[C@@H](CC(C)C)C(=O)NCC(N)=O)NC(=O)[C@H](CC(N)=O)NC(=O)[C@H](CCC(N)=O)NC1=O` [Oxytocin, oxytocin, reference compound], the “effect of oxytocin on uterine contractility” value in data set [3] (1 to 1000 nM oxytocin) was “dose-dependent increase in uterine contractility”.
As for `C[C@]12CC[C@@H](O)C[C@H]1CC[C@@H]1[C@@H]2CC[C@]2(C)[C@@H](C(=O)CO)CC[C@@H]12` [THDOC, tetrahydrodeoxycorticosterone], in data set [4], the “gestation after LPS” value is given as “prolonged gestation in vivo”.
Turning to `CC(=O)[C@H]1CC[C@H]2[C@@H]3CC=C4C[C@@H](OS(=O)(=O)O)CC[C@]4(C)[C@H]3CC[C@]12C` [pregnenolone sulfate], in data set [7], the “pups birthed” value is recorded as “Full-term live pups” and the “gestation after LPS” value is “prolonged gestation in vivo”. Moreover, the “rank of gestation result among treatments” value in data set [7] (4 doses at 30 mg/kg) is listed as “most significant results, matching the untreated control”.
On to `CC(=O)[C@H]1CC[C@H]2[C@@H]3CC=C4C[C@@H](O)CC[C@]4(C)[C@H]3CC[C@]12C` [pregnenolone], for which the “gestation after LPS” value in data set [7] is reported as “prolonged gestation in vivo”.
In the case of `CC(=O)[C@H]1CC[C@H]2[C@@H]3CCC4=CC(=O)CC[C@]4(C)[C@H]3CC[C@]12C` [progesterone, reference compound], the “ability to mitigate collagen retraction” value in data set [1] was “no effect”. Further, the “muscle contractility, myography tracing” value was “no effects” in data set [2] (1 μM); “first enhanced and then gradually suppressed in peak height” in data set [2] (10 μM).
